Experimental data from patent US7572815B2, “Amide derivative” (Ajinomoto Co., Inc., priority 2003, dated 2009).

Tested on: male ICR mouse
Experiment: Acetic acid-induced writhing method
Assay type: in vivo
Details: intraperitoneal, 30 minutes before 0.8% acetic acid
Experimental: The effect of the test compound was considered using male ICR mouse (4-week-old) according to a writhing test method induced by acetic acid. For intraperitoneal administration of a test compound and a standard product, the test compound was dissolved in a saline containing 5% DMSO and 5% Tween 80 to a suitable concentration. The test compound was administered 30 minutes before intraperitoneal administration of 0.8% acetic acid solution (diluted with saline), and the number of writhing was measured for 15 minutes from 5 minutes after acetic acid administration. A saline containing 5% DMSO and 5% Tween 80 was intraperitoneally administered to all control groups (vehicle administration group). Using indomethacin as a standard product, the same test was performed.
The number of writhing by each test compound is shown in FIG. 1, and the number of writhings by indomethacin is shown in FIG. 2.

Compound | Inhibition ratio (%) of number of writhing (dose 10 mg/kg) | Inhibition ratio (%) of number of writhing (dose 20 mg/kg)
COc1ccc2c(c1)c(CC(=O)O)c(C)n2C(=O)c1ccc(Cl)cc1 [indomethacin, reference compound] | 31% | 
CCN(CCCC(=O)Nc1ccccc1Br)c1cccc(C)c1 [Example 52, N-(2-bromophenyl)-4-(ethyl-3-methylanilino)butanamide] | 19% | 67%
